Experimental data as given in PubChem BioAssay (NCI).
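Following 48 hours of exposure in 96-well plates, responses at five concentrations were used to interpolate endpoints linearly. Definition used: TGI = concentration required for complete inhibition of growth.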

Key:
Assay in all cases: DTP human tumour cell line panel, 48 h
[1] = system: K-562 leukemia
[2] = system: SF-295 CNS
[3] = system: SF-539 CNS
[4] = system: SN12C renal
[5] = system: RXF 393 renal
[6] = system: NCI-H226 lung
[7] = system: OVCAR-5 ovarian
[8] = system: EKVX NSCLC
[9] = system: UO-31 renal
[10] = system: HT29 colon
[11] = system: HCT-15 colon
[12] = system: OVCAR-3 ovarian
[13] = system: ACHN renal
[14] = system: DMS 273 small cell lung
[15] = system: SW-620 colon
[16] = system: SNB-19 CNS
[17] = system: SK-MEL-5 melanoma
[18] = system: HL-60(TB) leukemia
[19] = system: U251 CNS
[20] = system: SK-MEL-2 melanoma
[21] = system: CCRF-CEM leukemia
[22] = system: IGROV1 ovarian
[23] = system: M19-MEL melanoma
[24] = system: HOP-62 NSCLC
[25] = system: NCI-H522 lung
[26] = system: NCI-H23 lung
[27] = system: M14 melanoma
[28] = system: NCI-H460 lung
[29] = system: SR leukemia
[30] = system: TK-10 renal
[31] = system: CAKI-1 renal
[32] = system: UACC-257 melanoma
[33] = system: RPMI-8226 leukemia
[34] = system: HCC-2998 colon
[35] = system: LOX IMVI melanoma
[36] = system: SF-268 CNS
[37] = system: SK-OV-3 ovarian
[38] = system: UACC-62 melanoma
[39] = system: DMS 114 small cell lung
[40] = system: A549 NSCLC
[41] = system: OVCAR-8 ovarian
[42] = system: MALME-3M melanoma
[43] = system: HOP-18 NSCLC
[44] = system: MOLT-4 leukemia
[45] = system: DLD-1 colon
[46] = system: SNB-75 CNS
[47] = system: HCT-116 colon
[48] = system: KM20L2 colon
[49] = system: OVCAR-4 ovarian
[50] = system: LXFL 529 NSCLC
[51] = system: SNB-78 CNS
[52] = system: COLO 205 colon
[53] = system: A498 renal
[54] = system: KM12 colon
[55] = system: RXF-631 renal
[56] = system: SK-MEL-28 melanoma
[57] = system: HOP-92 NSCLC
[58] = system: 786-0 renal
[59] = system: XF 498 CNS

Measured: TGI

C=CCc1c(O)c2c(c3oc(=O)cc(C)c13)CC(C)O2 (configuration not stated)
not listed: [52] | [53] | [54] | [55] | [56] | [57] | [58] | [59]
> 100 µM: all other assays above

Cc1cn2c(=O)c3ncn(C4OC(CO)C(O)C4O)c3n(C)c2n1 (configuration not stated)
not listed: [24] | [29] | [59]
> 100 µM: all other assays above

CC(C)N(C(=O)C12C3C4C1C1C4(C#N)C3C12C#N)C(C)C (configuration not stated)
not listed: [14] | [18] | [20] | [25] | [29] | [35] | [46] | [47] | [54]
> 100 µM: all other assays above

[N-]=[N+]=NC1(Cc2ccccc2)C(=O)c2cccc3c2N(CCC3)C1=O (configuration not stated)
not listed: [8] | [12] | [16] | [34] | [48] | [51] | [53] | [55] | [59]
> 100 µM: all other assays above
